Assay results taken from patent US20240391965A1, “STAPLED ANTIMICROBIAL PEPTIDES (STAMPS) AND USES THEREOF” (Lytica Therapeutics, Inc., priority 2021, published 2024).
Converted amounts (≈) assume the structure as drawn. Starred links: 1 amine or outer side, 2 acyl side, 3 side chain; linkers in the order of their positions; H or OH if unused. Positions of bridges follow the written chain, without caps; N, C: chain ends. Residues, ends and D or L forms follow the SMILES beside them. mXylylene = c1cc(C[*:1])cc(C[*:2])c1; pXylylene = c1cc(C[*:2])ccc1C[*:1]; X1 = C(=CC[*:2])C[*:1]

Assays:
[1] = 48 hours cytotoxicity assay (CellTiter-Glo), liver toxicity; format: cell-based, human; settings: 48 hours of incubation, CellTiter-Glo; read-out: Inhibitory Concentration at 50% Cytotoxicity (IC50) Human Liver Cells (HepG2)
Outline: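 Viability from CellTiter-Glo luminescence after StAMP dilution series or vehicle acted on HepG2 cells for 48 h at 37 °C. Cells were grown in EMEM plus 10% FBS and given 4 h to attach before dosing.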

[2] = tested on: Acinetobacter baumannii (A. baumannii); format: cell-based; settings: microbroth dilution, 20-24 hours at 37° C.
Outline: (§1)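 Visual growth read-out after 20-24 h at 37 °C defines the MIC. Inoculum: 5×10^5 CFU/ml of regrown (3-4 h) bacteria in MHB or MHB II, against serial peptide dilutions, following an adapted CLSI protocol.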

[3] = tested on: Staphylococcus aureus (S. aureus); format: cell-based; settings: microbroth dilution, 20-24 hours at 37° C.
Outline: as §1

[4] = tested on: Escherichia coli (E. coli); format: cell-based; settings: microbroth dilution, 20-24 hours at 37° C.
Outline: as §1

[5] = tested on: Pseudomonas aeruginosa (P. aeruginosa); format: cell-based; settings: microbroth dilution, 20-24 hours at 37° C.
Outline: as §1

[6] = tested on: Klebsiella pneumoniae (K. pneumoniae); format: cell-based; settings: microbroth dilution, 20-24 hours at 37° C.
Outline: as §1

[7] = 90 minute cytotoxicity assay (LDH release), renal toxicity; format: cell-based; settings: 90 minutes of incubation, LDH release; read-out: Inhibitory Concentration at 50% Cytotoxicity (IC50) Human Renal Proximal Tubule Epithelial Cells (RPTEC)
Outline: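 Released lactate dehydrogenase, read as absorbance at 490 nm after 10 min with assay reagent, serves as read-out. Renal proximal tubule epithelial cells received peptide serial dilutions or vehicle for 90 min at 37° C after overnight plating.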

Structure (SMILES)	IC50 [1] [µg/mL]	Minimum Inhibitory Concentration (MIC) A. baumannii [2] [µg/mL]	Minimum Inhibitory Concentration (MIC) S. aureus [3] [µg/mL]	Minimum Inhibitory Concentration (MIC) E. coli [4] [µg/mL]	Minimum Inhibitory Concentration (MIC) P. aeruginosa [5] [µg/mL]	Minimum Inhibitory Concentration (MIC) K. pneumoniae [6] [µg/mL]	IC50 [7] [µg/mL]
CC[C@H](C)[C@H](NC(=O)CN)C(=O)N[C@@H](Cc1ccccc1)C(=O)N[C@@H](CO)C(=O)N[C@@H](CCCCN)C(=O)N[C@@H](CC(C)C)C(=O)N[C@@H](C)C(=O)NCC(=O)N[C@@H](CCCCN)C(=O)N[C@@H](CCCCN)C(=O)N[C@H]1CSCc2ccc(cc2)CSC[C@@H](C(=O)N[C@H](C(=O)N[C@@H](CO)C(=O)NCC(=O)N[C@@H](CC(C)C)C(=O)N[C@@H](CCCCN)C(=O)NCC(N)=O)[C@@H](C)CC)NC(=O)[C@H](CC(C)C)NC(=O)[C@H](CC(N)=O)NC(=O)[C@H](CCCCN)NC1=O [compound 18] (H-GIFSKLAGKKCKNLCISGLKG-NH2; linker 11-15 via pXylylene)	> 200	>64	>64	>64	>64	>64	> 200
CC[C@H](C)[C@H](NC(=O)CN)C(=O)N[C@@H](Cc1ccccc1)C(=O)N[C@@H](CO)C(=O)N[C@@H](CCCCN)C(=O)N[C@@H](CC(C)C)C(=O)N[C@@H](C)C(=O)NCC(=O)N[C@@H](CCCCN)C(=O)N[C@@H](CCCCN)C(=O)N[C@H]1CSCC=CCSC[C@@H](C(=O)N[C@H](C(=O)N[C@@H](CO)C(=O)NCC(=O)N[C@@H](CC(C)C)C(=O)N[C@@H](CCCCN)C(=O)NCC(N)=O)[C@@H](C)CC)NC(=O)[C@H](CC(C)C)NC(=O)[C@H](CC(N)=O)NC(=O)[C@H](CCCCN)NC1=O [compound 19] (H-GIFSKLAGKKCKNLCISGLKG-NH2; linker 11-15 via X1)	> 200	>64	>64	>64	>64	>64	> 200
CC[C@H](C)[C@H](NC(=O)CN)C(=O)N[C@@H](Cc1ccccc1)C(=O)N[C@@H](CO)C(=O)N[C@@H](CCCCN)C(=O)N[C@@H](CC(C)C)C(=O)N[C@@H](C)C(=O)NCC(=O)N[C@@H](CCCCN)C(=O)N[C@@H](CCCCN)C(=O)N[C@H](C(=O)N[C@H]1CSCc2cccc(c2)CSC[C@@H](C(=O)N[C@@H](CO)C(=O)NCC(=O)N[C@@H](CC(C)C)C(=O)N[C@@H](CCCCN)C(=O)NCC(N)=O)NC(=O)[C@H](CC(C)C)NC(=O)[C@H](CC(C)C)NC(=O)[C@H](CC(N)=O)NC1=O)[C@@H](C)CC [compound 20] (H-GIFSKLAGKKICNLLCSGLKG-NH2; linker 12-16 via mXylylene)	40 (≈ 17.8 µM)	8	64	8	16	16	25 (≈ 11.1 µM)
CC[C@H](C)[C@H](NC(=O)CN)C(=O)N[C@@H](Cc1ccccc1)C(=O)N[C@@H](CO)C(=O)N[C@@H](CCCCN)C(=O)N[C@@H](CC(C)C)C(=O)N[C@@H](C)C(=O)NCC(=O)N[C@@H](CCCCN)C(=O)N[C@@H](CCCCN)C(=O)N[C@H](C(=O)N[C@H]1CSCc2ccc(cc2)CSC[C@@H](C(=O)N[C@@H](CO)C(=O)NCC(=O)N[C@@H](CC(C)C)C(=O)N[C@@H](CCCCN)C(=O)NCC(N)=O)NC(=O)[C@H](CC(C)C)NC(=O)[C@H](CC(C)C)NC(=O)[C@H](CC(N)=O)NC1=O)[C@@H](C)CC [compound 21] (H-GIFSKLAGKKICNLLCSGLKG-NH2; linker 12-16 via pXylylene)	200 (≈ 88.8 µM)	16	>64	8	32	32	96 (≈ 42.6 µM)
CC[C@H](C)[C@H](NC(=O)CN)C(=O)N[C@@H](Cc1ccccc1)C(=O)N[C@@H](CO)C(=O)N[C@@H](CCCCN)C(=O)N[C@@H](CC(C)C)C(=O)N[C@@H](C)C(=O)NCC(=O)N[C@@H](CCCCN)C(=O)N[C@@H](CCCCN)C(=O)N[C@H](C(=O)N[C@H]1CSCC=CCSC[C@@H](C(=O)N[C@@H](CO)C(=O)NCC(=O)N[C@@H](CC(C)C)C(=O)N[C@@H](CCCCN)C(=O)NCC(N)=O)NC(=O)[C@H](CC(C)C)NC(=O)[C@H](CC(C)C)NC(=O)[C@H](CC(N)=O)NC1=O)[C@@H](C)CC [compound 22] (H-GIFSKLAGKKICNLLCSGLKG-NH2; linker 12-16 via X1)	> 200	64	>64	32	64	>64	> 200
CC[C@H](C)[C@H](NC(=O)CN)C(=O)N[C@@H](Cc1ccccc1)C(=O)N[C@@H](CO)C(=O)N[C@@H](CCCCN)C(=O)N[C@@H](CC(C)C)C(=O)N[C@@H](C)C(=O)NCC(=O)N[C@@H](CCCCN)C(=O)N[C@@H](CCCCN)C(=O)N[C@H](C(=O)N[C@@H](CCCCN)C(=O)N[C@@H](CC(N)=O)C(=O)N[C@@H](CC(C)C)C(=O)N[C@H]1CSCc2cccc(c2)CSC[C@@H](C(=O)N[C@@H](CCCCN)C(=O)NCC(N)=O)NC(=O)CNC(=O)[C@H](CO)NC(=O)[C@H]([C@@H](C)CC)NC1=O)[C@@H](C)CC [compound 29] (H-GIFSKLAGKKIKNLCISGCKG-NH2; linker 15-19 via mXylylene)	~200 (≈ 88.2 µM)	16	>64	64	64	>64	> 200
CC[C@H](C)[C@H](NC(=O)CN)C(=O)N[C@@H](Cc1ccccc1)C(=O)N[C@@H](CO)C(=O)N[C@@H](CCCCN)C(=O)N[C@@H](CC(C)C)C(=O)N[C@@H](C)C(=O)NCC(=O)N[C@@H](CCCCN)C(=O)N[C@@H](CCCCN)C(=O)N[C@H](C(=O)N[C@@H](CCCCN)C(=O)N[C@@H](CC(N)=O)C(=O)N[C@@H](CC(C)C)C(=O)N[C@H]1CSCc2ccc(cc2)CSC[C@@H](C(=O)N[C@@H](CCCCN)C(=O)NCC(N)=O)NC(=O)CNC(=O)[C@H](CO)NC(=O)[C@H]([C@@H](C)CC)NC1=O)[C@@H](C)CC [compound 30] (H-GIFSKLAGKKIKNLCISGCKG-NH2; linker 15-19 via pXylylene)	> 200	16	>64	64	64	>64	> 200
CC[C@H](C)[C@H](NC(=O)CN)C(=O)N[C@@H](Cc1ccccc1)C(=O)N[C@@H](CO)C(=O)N[C@@H](CCCCN)C(=O)N[C@@H](CC(C)C)C(=O)N[C@@H](C)C(=O)NCC(=O)N[C@@H](CCCCN)C(=O)N[C@@H](CCCCN)C(=O)N[C@H](C(=O)N[C@@H](CCCCN)C(=O)N[C@@H](CC(N)=O)C(=O)N[C@@H](CC(C)C)C(=O)N[C@H]1CSCC=CCSC[C@@H](C(=O)N[C@@H](CCCCN)C(=O)NCC(N)=O)NC(=O)CNC(=O)[C@H](CO)NC(=O)[C@H]([C@@H](C)CC)NC1=O)[C@@H](C)CC [compound 31] (H-GIFSKLAGKKIKNLCISGCKG-NH2; linker 15-19 via X1)	> 200	>64	>64	>64	>64	>64	> 200
CC[C@H](C)[C@H](NC(=O)CN)C(=O)N[C@@H](Cc1ccccc1)C(=O)N[C@@H](CO)C(=O)N[C@@H](CCCCN)C(=O)N[C@@H](CC(C)C)C(=O)N[C@@H](C)C(=O)NCC(=O)N[C@@H](CCCCN)C(=O)N[C@@H](CCCCN)C(=O)N[C@H](C(=O)N[C@@H](CCCCN)C(=O)N[C@@H](CC(N)=O)C(=O)N[C@@H](CC(C)C)C(=O)N[C@@H](CC(C)C)C(=O)N[C@H]1CSCc2cccc(c2)CSC[C@@H](C(=O)NCC(N)=O)NC(=O)[C@H](CC(C)C)NC(=O)CNC(=O)[C@H](CO)NC1=O)[C@@H](C)CC [compound 32] (H-GIFSKLAGKKIKNLLCSGLCG-NH2; linker 16-20 via mXylylene)	41 (≈ 18.2 µM)	2	>64	2	16	8	30 (≈ 13.3 µM)
